Earlier results on 41 substances are cited in PMC8198792, “Prediction of Anticancer Peptides with High Efficacy and Low Toxicity by Hybrid Model Based on 3D Structure of Peptides” (International Journal of Molecular Sciences, 2021).

Like-named read-outs stand apart in the source and are kept apart here.

This data set deals with cancer cell lines. Also on record: method as in 6 sources, ref CancerPPD [45] and SATPdb ||| ref CancerPPD/SATPdb ||| ref CancerPPD, SATPdb, Swissprot (PDB) ||| ref CancerPPD/SATPdb/Swissprot(PDB) ||| ref CancerPPD / SATPdb ||| ... The conditions noted are these: cited from earlier work. An excerpt:
Supplement ijms-22-05630-s001.zip/ACPs(seguence).xlsx, sheet "D1" | column: Activity || Supplement ijms-22-05630-s001.zip/ACPs(seguence).xlsx, sheet "D2" | column: Activity || Supplement ijms-22-05630-s001.zip/ACPs(seguence).xlsx, sheet "D3" | column: Activity || (+ 2 further places)

The mark [1] stands for this setting: ACPs dataset D1, 1 = ACP (positive), 0 = non-ACP (negative), label taken from databases, ref CancerPPD [45] and SATPdb.
Where [2] appears, read: ACPs dataset D4 (sheet "D4"), label 1 = ACP, experimentally validated ACPs, ref CancerPPD [45] and SATPdb.
The mark [3] stands for this setting: ACPs dataset D5 (sheet "D5"), label 1 = ACP (positive set), sequences with CancerPPD/SATPdb ID, ref CancerPPD, SATPdb.
[4] abbreviates: ACPs dataset sheet D2, 1 = ACP (CancerPPD/SATPdb ID), 0 = non-ACP (Swissprot/PDB ID), ref CancerPPD, SATPdb, Swissprot (PDB).
The mark [5] stands for this setting: ACPs dataset D1, label 1 = ACP, 0 = non-ACP (non-anticancer AMPs from SATPdb), ref CancerPPD/SATPdb.
The mark [6] stands for this setting: ACPs dataset D4 (sheet "D4"), label 1 = ACP, 0 = non-ACP, ref CancerPPD / SATPdb.
[7] abbreviates: ACPs dataset D4 (sheet "D4"), label 1 = ACP (CancerPPD ID), 0 = non-ACP (non-anticancer AMP, SATPdb ID), ref CancerPPD [45] and SATPdb.
The mark [8] stands for this setting: ACPs dataset D3 (supplement sheet "D3"), 1 = ACP, 0 = non-ACP, ref CancerPPD [45] and SATPdb.
Setting [9] is: ACPs dataset D5 (sheet "D5"), label 1 = ACP (positive set), 0 = non-ACP (negative set), ref CancerPPD [45] and SATPdb.
Where [10] appears, read: ACPs dataset D2 (supplement ACPs(seguence).xlsx, sheet D2), dataset label 1/0 (ACP / non-ACP), entries identified by Swissprot(PDB ID), ref CancerPPD/SATPdb/Swissprot(PDB).
Where [11] appears, read: ACPs dataset D5, sheet "D5", label 1 = ACP, 0 = non-ACP, ref CancerPPD [45] and SATPdb.
Where [12] appears, read: ACPs dataset D3 (sheet "D3"), label 1 = ACP, 0 = non-ACP, ref CancerPPD/SATPdb.

For the substance “FLPIIAGAAAKVVEKIFCAISKKC [compound 4357]”, the Activity under setting [1] was 1, the Activity under setting [2] is given as 1, the Activity under setting [3] is listed as 1 and the Activity under setting [4] is 1.

Take “KRRHWFPLSFQEFLEQLRRFRDQLPFP [satpdb12966]”: the Activity runs as follows: under setting [5], 0; under setting [6], 0.

For the substance ITIPPIVKNTLKKFIKGAVSALMS [satpdb11263], the Activity is on record as 0 under setting [1] and 0 under setting [7].

Take “FLPIIAGIAAKFLPKIFCTISKKC [compound 4359]”: the Activity is recorded as 1 under setting [1], 1 under setting [2], 1 under setting [3] and 1 under setting [4].

For the substance “EGVRNHVTCRINRGFCVPIRCPGRTRQIGTCFGPRIKCCRSW [satpdb13124]”, the Activity under setting [5] is recorded as 0 and the Activity under setting [6] was 0.

As for “KVNANAIKKGGKAIGKGFKVISAASTAHDVYEHIKNRRH [satpdb12894]”, the Activity is, setting by setting: under setting [5], 0; under setting [6], 0.

As for GPWAPCSASCGGGSQSRS [satpdb28727], the Activity under setting [1] was 1, the Activity under setting [2] is given as 1, the Activity under setting [3] is given as 1 and the Activity under setting [4] is reported as 1.

For the substance “CETWRTETTGATGQASSLLSGRLLEQKAASCHNSYIVLCIENSFMTSFSK [satpdb15843]”, the Activity reads like this: under setting [1], 1; under setting [2], 1; under setting [3], 1; under setting [4], 1.

“DLRFWNPREKLPLPTLPPFNPKPIYIDMGNRY [satpdb12945]”: the Activity is recorded as 0 under setting [5] and 0 under setting [6].

In the case of FAKKLAKLAKKLLAL [compound 1790], the Activity is, setting by setting: under setting [8], 1; under setting [2], 1; under setting [3], 1.

For the substance GIGKFLKKAKKFAKAFVKIINN [compound 1117], the Activity runs as follows: under setting [8], 1; under setting [7], 1; under setting [9], 1.

For the substance “MDKVQYLTRSAIRRASTIEMPQQARQNLQNLFINFCLILICLLLICIIVMLL [4KYT X-ray 2.83 B/C 1-52]”, the Activity runs as follows: under setting [10], 0; under setting [11], 0.

On to GLLGPLLKIAKKVGSNLL [satpdb10622], for which the Activity was 0 under setting [8], 0 under setting [6] and 0 under setting [11].

On to FVDLKKIANIINSIF [compound 2851], for which the Activity runs as follows: under setting [8], 1; under setting [7], 1; under setting [9], 1.

On to “MESQSNAVQLMLGFGTFVLMLLGLVVELIKNSNKK [satpdb12625]”, for which the Activity under setting [5] is on record as 0 and the Activity under setting [7] is 0.

Consider “IKLSPETKDNLKKVLKGAIKGAIAVAKMV [satpdb12617]”, for which the Activity runs as follows: under setting [12], 0; under setting [6], 0; under setting [11], 0.

In the case of GIIKKIIKKI [compound 2839], the Activity under setting [8] is 1, the Activity under setting [7] is 1 and the Activity under setting [9] is 1.

With “FHVPDDRPCINPGRCPLVPDATCTFVCKAADNDFGYECQHVWTFEGQRVGCYA [5MRV X-ray 1.85,C,1-53]”, the Activity is, setting by setting: under setting [10], 0; under setting [11], 0.

Consider FLPLIASVAANLAPKIICKITKTC [satpdb12152], for which the Activity reads like this: under setting [5], 0; under setting [7], 0.

Turning to FLWWLFKWAWK [compound 1728], the Activity by setting is: under setting [1], 1; under setting [8], 1; under setting [2], 1; under setting [3], 1; under setting [4], 1.

Take ILPWKWPWAPARR [satpdb12615]: the Activity reads like this: under setting [12], 0; under setting [6], 0; under setting [11], 0.

As for PKLlKTFlSKWIG [satpdb12561], the Activity is reported as 0 under setting [5] and 0 under setting [7].

As for VSRRRRRRGGRRRR [satpdb11057], the Activity is on record as 0 under setting [1] and 0 under setting [7].

In the case of “GECEQCFSDGGDCTTCFNNGTGPCANCLAGYPAGCSNSDCTAFLSQCYGGC [1HA8 NMR - A 1-51]”, the Activity was 0 under setting [10] and 0 under setting [11].

“LCNERPSQTWSGNCGNTAHCDKQCQDWEKASHGACHKRENHWKCFCYFNC [1BK8 NMR - A 1-50]”: the Activity is 0 under setting [10] and 0 under setting [9].

Turning to RGGRLCYARRRFAVCVGR [satpdb14374], the Activity is on record as 0 under setting [12], 0 under setting [6] and 0 under setting [11].

Consider LSSTCILVLVKSTY [satpdb19063], for which the Activity under setting [1] is 1, the Activity under setting [2] is recorded as 1, the Activity under setting [3] was 1 and the Activity under setting [4] is recorded as 1.

Consider “GIGGVLLSAGKAALKGLAKVLAEKYAN [compound 4400]”, for which the Activity reads like this: under setting [1], 1; under setting [2], 1; under setting [3], 1; under setting [4], 1.

For the substance DLWIRETLTSPKSLTG [satpdb21617], the Activity is 1 under setting [1], 1 under setting [2], 1 under setting [3] and 1 under setting [4].

As for LCYCRRRFCGCV [satpdb12860], the Activity reads like this: under setting [5], 0; under setting [6], 0.

Turning to GLFKVIKKVAKVIKKL [compound 4156], the Activity is, setting by setting: under setting [8], 1; under setting [7], 1; under setting [9], 1.

Turning to “KWKSFLKTFKSLKKTVLHTlLKAISS [compound 3757]”, the Activity under setting [8] is on record as 1, the Activity under setting [7] is 1 and the Activity under setting [9] is 1.

For “MTEEMLYAALLSFGLIFVGWGLGVLLLKIQGAEKE [4I7Z X-ray 2.80,F,1-35]”, the Activity is 0 under setting [9] and 0 under setting [4].

For the substance ALWKTLLKKVLKAAAK [satpdb14616], the Activity reads like this: under setting [12], 0; under setting [6], 0; under setting [11], 0.

Turning to GVLSNVIGYLKKLGTGALNAVLKQ [satpdb12685], the Activity runs as follows: under setting [5], 0; under setting [7], 0.

As for QPWSQCSATCGDGVRERRR [satpdb12468], the Activity by setting is: under setting [1], 1; under setting [2], 1; under setting [3], 1; under setting [4], 1.

With PAARKAARWAWRMLKKGA [compound 1614], the Activity runs as follows: under setting [1], 1; under setting [2], 1; under setting [3], 1; under setting [4], 1.

On to FLGMIPKLIKKLIKAFK [compound 3135], for which the Activity by setting is: under setting [8], 1; under setting [2], 1; under setting [3], 1.

Turning to “DDTPSSRCGSGGWGPCLPIVDLLCIVHVTVGCSGGFGCCRIG [2JR3 NMR - A 1-42]”, the Activity is 0 under setting [10] and 0 under setting [9].

RRPKGRGKRRREKQRPDAVPRR [satpdb18651]: the Activity reads like this: under setting [1], 1; under setting [2], 1; under setting [3], 1; under setting [4], 1.

KAYSTPRCKYLFRAVLCWL [satpdb14444]: the Activity is, setting by setting: under setting [12], 0; under setting [6], 0; under setting [11], 0.
